Measured values as given in patent US20240327364A1, “THERAPEUTIC TARGETING OF GPR68 TO INDUCE FERROPTOSIS” (University Of Maryland, Baltimore, priority 2023, published 2024).

Assays:
FLT3(D835Y) = target: T1, FLT3(D835Y) (Homo sapiens, UniProt P36888, D835Y); assay: KinomeScan; assay type: binding; details: read-out: % Control
T1 construct: purchased DiscoveRx (Fremont, CA)

GRK7 = target: T2, GRK7 (Homo sapiens, UniProt Q8WTQ7); assay: KinomeScan; assay type: binding; details: read-out: % Control
T2 construct: purchased DiscoveRx (Fremont, CA)

MRGX1 = target: T3, MRGX1 (Homo sapiens, UniProt Q96LB2); assay: GPCR Profiler; assay type: cell-based
T3 construct: host or cells: Chem-1 cells expressing Gα15
T3 sequence (Q96LB2 whole entry, species assumed): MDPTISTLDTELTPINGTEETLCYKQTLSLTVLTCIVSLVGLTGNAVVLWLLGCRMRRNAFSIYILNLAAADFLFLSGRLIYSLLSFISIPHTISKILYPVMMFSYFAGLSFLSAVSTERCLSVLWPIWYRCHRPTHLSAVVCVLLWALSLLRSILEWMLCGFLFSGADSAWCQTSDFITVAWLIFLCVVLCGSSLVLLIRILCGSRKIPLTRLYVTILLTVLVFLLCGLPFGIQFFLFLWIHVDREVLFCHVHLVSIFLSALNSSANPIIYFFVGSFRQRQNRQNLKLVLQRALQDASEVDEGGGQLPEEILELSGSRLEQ

SRPK2 = target: T4, SRPK2 (Homo sapiens, UniProt P78362); assay: KinomeScan; assay type: binding; details: read-out: % Control
T4 construct: purchased DiscoveRx (Fremont, CA)

ETA = target: T5, ETA (Homo sapiens, UniProt P25101); assay: GPCR Profiler; assay type: cell-based
T5 construct: host or cells: Chem-1 cells expressing Gα15
T5 sequence (P25101 21-427): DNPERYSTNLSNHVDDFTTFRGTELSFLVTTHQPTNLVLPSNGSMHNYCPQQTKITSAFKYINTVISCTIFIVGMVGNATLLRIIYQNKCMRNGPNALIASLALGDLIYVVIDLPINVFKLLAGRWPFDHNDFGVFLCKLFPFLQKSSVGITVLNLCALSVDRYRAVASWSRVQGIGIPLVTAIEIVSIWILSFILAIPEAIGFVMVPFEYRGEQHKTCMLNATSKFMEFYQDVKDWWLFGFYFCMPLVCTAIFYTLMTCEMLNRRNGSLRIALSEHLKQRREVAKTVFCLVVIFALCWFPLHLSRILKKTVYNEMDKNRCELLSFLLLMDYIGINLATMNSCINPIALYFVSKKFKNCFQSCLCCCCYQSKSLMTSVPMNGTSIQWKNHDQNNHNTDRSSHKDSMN

FGFR1 = target: T6, FGFR1 (Homo sapiens, UniProt P11362); assay: KinomeScan; assay type: binding; details: read-out: % Control
T6 construct: purchased DiscoveRx (Fremont, CA)

EGFR = target: T7, EGFR (Homo sapiens, UniProt P00533); assay: KinomeScan; assay type: binding; details: read-out: % Control
T7 construct: purchased DiscoveRx (Fremont, CA), KinomeScan service

PIK3C2G = target: T8, PIK3C2G (Homo sapiens, UniProt O75747); assay: KinomeScan; assay type: binding; details: read-out: % Control
T8 construct: purchased DiscoveRx (Fremont, CA)
T8 sequence (O75747 whole entry): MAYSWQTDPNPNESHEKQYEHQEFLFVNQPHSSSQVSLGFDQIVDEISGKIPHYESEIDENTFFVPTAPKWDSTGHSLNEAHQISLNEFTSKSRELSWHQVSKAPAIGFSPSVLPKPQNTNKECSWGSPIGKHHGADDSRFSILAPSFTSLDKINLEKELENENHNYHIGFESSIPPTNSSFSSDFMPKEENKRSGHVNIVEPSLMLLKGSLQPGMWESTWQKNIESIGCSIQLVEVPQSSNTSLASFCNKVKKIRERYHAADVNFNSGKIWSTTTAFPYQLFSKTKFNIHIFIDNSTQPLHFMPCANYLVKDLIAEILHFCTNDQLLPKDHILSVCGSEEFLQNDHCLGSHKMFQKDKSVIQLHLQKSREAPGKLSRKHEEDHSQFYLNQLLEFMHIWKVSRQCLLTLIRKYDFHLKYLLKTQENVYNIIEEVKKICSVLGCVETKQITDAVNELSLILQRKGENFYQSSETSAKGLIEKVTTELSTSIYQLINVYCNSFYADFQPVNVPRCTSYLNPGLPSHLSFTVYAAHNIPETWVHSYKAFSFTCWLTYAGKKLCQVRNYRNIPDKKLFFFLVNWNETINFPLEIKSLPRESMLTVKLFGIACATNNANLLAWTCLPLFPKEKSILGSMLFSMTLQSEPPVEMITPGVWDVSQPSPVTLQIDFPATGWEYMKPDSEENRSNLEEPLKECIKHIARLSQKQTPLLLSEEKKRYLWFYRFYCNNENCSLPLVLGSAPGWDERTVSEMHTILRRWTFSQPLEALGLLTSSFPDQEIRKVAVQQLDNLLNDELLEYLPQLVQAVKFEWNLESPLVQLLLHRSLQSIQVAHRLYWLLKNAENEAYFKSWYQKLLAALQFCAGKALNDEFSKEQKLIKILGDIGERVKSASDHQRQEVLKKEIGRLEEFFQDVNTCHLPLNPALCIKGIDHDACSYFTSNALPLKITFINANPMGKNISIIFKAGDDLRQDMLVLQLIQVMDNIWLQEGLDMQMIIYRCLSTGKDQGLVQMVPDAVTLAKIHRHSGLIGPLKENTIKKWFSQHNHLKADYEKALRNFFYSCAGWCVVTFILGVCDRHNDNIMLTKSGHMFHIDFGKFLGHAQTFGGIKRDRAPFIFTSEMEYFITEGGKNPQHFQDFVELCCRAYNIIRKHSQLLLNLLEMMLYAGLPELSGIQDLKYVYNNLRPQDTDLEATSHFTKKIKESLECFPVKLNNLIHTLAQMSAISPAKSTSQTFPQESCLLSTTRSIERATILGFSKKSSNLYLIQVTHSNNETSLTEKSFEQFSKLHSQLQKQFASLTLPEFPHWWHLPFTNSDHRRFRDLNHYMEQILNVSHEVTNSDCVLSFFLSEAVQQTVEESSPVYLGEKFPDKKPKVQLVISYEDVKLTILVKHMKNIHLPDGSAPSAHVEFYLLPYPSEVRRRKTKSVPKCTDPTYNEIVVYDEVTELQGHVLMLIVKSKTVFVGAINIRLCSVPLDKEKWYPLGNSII

FP = target: T9, FP (Homo sapiens, UniProt P43088); assay: GPCR Profiler; assay type: cell-based
T9 construct: host or cells: Chem-1 cells expressing Gα15
T9 sequence (P43088 whole entry): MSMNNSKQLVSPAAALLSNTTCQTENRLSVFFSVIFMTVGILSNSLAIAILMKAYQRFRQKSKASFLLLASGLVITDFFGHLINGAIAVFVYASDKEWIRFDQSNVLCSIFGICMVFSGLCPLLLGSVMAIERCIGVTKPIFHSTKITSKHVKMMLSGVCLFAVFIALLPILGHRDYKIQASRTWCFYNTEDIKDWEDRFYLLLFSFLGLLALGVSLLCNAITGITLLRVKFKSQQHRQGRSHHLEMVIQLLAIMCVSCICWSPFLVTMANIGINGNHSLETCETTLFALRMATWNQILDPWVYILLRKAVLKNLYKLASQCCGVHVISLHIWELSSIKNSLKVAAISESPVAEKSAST

LRRK2(G2019S) = target: T10, LRRK2(G2019S) (Homo sapiens, UniProt Q5S007, G2019S); assay: KinomeScan; assay type: binding; details: read-out: % Control
T10 construct: purchased DiscoveRx
T10 sequence (Q5S007 whole entry G2019S): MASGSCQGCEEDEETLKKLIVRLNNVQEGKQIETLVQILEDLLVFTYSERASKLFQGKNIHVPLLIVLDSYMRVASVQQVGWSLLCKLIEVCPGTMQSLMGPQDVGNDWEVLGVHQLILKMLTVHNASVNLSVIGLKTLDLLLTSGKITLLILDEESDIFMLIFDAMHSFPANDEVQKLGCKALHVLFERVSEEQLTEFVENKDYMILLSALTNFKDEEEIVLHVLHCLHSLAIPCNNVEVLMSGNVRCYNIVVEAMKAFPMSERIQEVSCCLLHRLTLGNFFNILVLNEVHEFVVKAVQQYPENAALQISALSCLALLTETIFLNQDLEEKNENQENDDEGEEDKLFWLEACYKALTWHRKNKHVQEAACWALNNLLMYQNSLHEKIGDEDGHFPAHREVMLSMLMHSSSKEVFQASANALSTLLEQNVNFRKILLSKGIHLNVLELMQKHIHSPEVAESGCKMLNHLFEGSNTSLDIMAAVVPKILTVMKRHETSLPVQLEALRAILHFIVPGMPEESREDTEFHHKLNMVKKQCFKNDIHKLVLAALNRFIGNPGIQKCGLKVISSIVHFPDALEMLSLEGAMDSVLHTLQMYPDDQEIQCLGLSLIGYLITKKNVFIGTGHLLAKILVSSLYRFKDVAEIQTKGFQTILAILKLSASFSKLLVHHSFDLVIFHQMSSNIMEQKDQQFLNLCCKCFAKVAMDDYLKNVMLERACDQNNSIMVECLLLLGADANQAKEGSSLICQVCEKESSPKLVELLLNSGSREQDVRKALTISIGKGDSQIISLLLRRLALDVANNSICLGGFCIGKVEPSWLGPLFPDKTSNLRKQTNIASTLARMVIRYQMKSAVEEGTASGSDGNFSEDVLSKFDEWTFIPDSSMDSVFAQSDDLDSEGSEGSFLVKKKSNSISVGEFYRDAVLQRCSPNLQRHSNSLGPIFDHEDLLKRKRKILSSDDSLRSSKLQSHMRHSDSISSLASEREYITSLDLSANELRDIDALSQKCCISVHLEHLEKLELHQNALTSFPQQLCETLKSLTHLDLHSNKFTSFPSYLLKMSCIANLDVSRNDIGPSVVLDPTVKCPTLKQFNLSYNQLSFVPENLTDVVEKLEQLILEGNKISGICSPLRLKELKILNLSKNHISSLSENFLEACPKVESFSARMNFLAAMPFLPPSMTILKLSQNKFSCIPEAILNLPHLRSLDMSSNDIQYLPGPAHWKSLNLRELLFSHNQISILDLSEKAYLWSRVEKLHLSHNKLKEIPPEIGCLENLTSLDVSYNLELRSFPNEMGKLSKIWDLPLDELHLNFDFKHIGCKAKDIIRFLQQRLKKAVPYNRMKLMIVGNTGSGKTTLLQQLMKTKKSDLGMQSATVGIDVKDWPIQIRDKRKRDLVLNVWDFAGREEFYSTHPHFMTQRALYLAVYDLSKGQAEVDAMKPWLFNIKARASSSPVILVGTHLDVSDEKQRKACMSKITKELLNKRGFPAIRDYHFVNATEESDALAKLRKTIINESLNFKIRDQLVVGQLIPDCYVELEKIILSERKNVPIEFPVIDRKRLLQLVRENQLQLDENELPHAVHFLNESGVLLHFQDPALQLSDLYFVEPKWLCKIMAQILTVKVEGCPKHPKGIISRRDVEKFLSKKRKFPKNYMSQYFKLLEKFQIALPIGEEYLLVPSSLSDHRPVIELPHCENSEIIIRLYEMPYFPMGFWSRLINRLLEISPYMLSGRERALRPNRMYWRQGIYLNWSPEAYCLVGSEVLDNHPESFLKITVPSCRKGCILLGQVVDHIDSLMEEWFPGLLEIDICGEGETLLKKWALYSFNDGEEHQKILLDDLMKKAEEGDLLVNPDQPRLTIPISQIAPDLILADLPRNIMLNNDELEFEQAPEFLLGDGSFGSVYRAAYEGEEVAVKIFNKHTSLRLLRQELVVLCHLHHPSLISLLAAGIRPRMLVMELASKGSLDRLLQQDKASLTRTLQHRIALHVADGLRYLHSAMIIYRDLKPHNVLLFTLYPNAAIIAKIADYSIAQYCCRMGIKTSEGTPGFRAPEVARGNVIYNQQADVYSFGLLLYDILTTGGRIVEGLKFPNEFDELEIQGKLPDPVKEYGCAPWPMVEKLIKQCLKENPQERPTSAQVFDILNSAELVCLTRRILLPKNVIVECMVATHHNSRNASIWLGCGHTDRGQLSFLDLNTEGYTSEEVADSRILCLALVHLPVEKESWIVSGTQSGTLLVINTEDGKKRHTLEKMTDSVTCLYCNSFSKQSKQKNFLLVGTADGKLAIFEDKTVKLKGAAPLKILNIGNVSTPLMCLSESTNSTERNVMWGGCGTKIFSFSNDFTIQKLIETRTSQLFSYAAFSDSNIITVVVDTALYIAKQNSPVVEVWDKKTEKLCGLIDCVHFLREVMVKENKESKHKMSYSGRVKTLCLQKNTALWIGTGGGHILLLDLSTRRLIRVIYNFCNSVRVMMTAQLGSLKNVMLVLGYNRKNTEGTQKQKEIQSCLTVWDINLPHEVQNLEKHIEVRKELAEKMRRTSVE

CSF1R = CSF1R (Homo sapiens, UniProt P07333); assay: KinomeScan; assay type: binding; details: read-out: % Control
HT-1080 = assay: Cell Titer-Glo viability, Fibrosarcoma; assay type: cell-based
Method: OGM2 kills wide variety of cancer cell types. Cell sensitivity can be classified in to Very Sensitive (LC50<2 μM), Sensitive (LC50=2 to 10 μM), Mildly Sensitive (LC50>10 μM), and Refractory (no killing at 10 μM). The listed established cell were incubated with OGM2 at 2 μM or 10 μM for 72 hours under standard cell culture conditions, and relative cell number was assessed using Cell Titer-Glo Luminescent Cell Viability Assay (Promega™) following the manufacturer's instructions. Luminescence was determined using a Cytation 5 reader and Gen5 software package (BioTek™).
Cancer cells, which are very sensitive to killing by OGM2 (LCs <2 μM), with reported mRNA expression of GPR68 and the related proton sensing receptor GPR4. LC50's (concentrations causing 50% lethality) were determined using CellTiter-Glo (Promega™, G7570). Cells were plated in 12-well plates (CELLTREAT Scientific Products, 229112) in 1 ml of DMEM with high glucose, GlutaMAX, HEPES, or RPMI 1640 with Penicillin-Streptomycin (ThermoFisher™, 10564029, 11875119 and 15140122) and 10% FBS. Cells were incubated overnight at 37° C. in 5% CO2. Then 1 mL of fresh media was added with DMSO, OGM, or positive control (Erastin; APExBIO Technology, LLC, B1524) and cells incubated for 3 days. On the third day, all media was removed, cells were rinsed with 1×PBS, PBS was removed, and 200 μL of 1× Passive Lysis Buffer (Promega™, E1941) was added to each well. […]. Subsequently, 20 μL of lysate was added to 100 μL CellTiter-Glo™ reagent on a LUMITRAC 200 plate (Greiner™ bio-one, 82050-726). Plates were briefly spun down and read on a GloMax-Multi Detection System (Promega™).
The cells listed in the tables above were incubated with OGM2 at 2 μM or 10 μM for 72 hours under standard cell culture conditions, and relative cell number was assessed using Cell Titer-Glo Luminescent Cell Viability Assay (Promega™) following the manufacturer's instructions. Luminescence was determined using a Cytation 5 reader and Gen5 software package (BioTek™). RNA expression of GPR68 and GPR4 in the corresponding cancer cell lines are listed, according to the publicly available The Human Protein Atlas version 22.0 and Ensembl version 103.38 (see proteinatlas.org). The consensus normalized expression value (“nTPM”=normalize transcript per million) was calculated as the maximum nTPM value for each gene in the two data sources.

U87 = assay: Immunogenic cell death markers (CRT externalization, ATP secretion); assay type: cell-based, human
Method: OGM2 treatment of […] increases makers of immunogenic cell death (ICD, such as release of ATP into the extracellular environment ([…]) and calreticulin (CRT) externalization (FIG. 94B and FIG. 94C). Extracellular ATP content was assessed using the Enliten Atp Assay System (PROMEGA) (FIG. 94A). Calreticulin (CRT) externalization 3- and 6-hours post-treatment (see FIG. 94B and FIG. 94C) in U87 cells was assessed using immunofluorescence analysis using polyclonal antibody against calreticulin (Invitrogen™). Immunogenic cell death (ICD) is defined by expression or release of damage-associated molecular patterns (DAMPs), including extracellular ATP release and calreticulin externalization, which stimulate antitumor immune response, which in turn contributes to long-lasting protective antitumor immunity. […]
For the CRT externalization assay, U87 cells were seeded on 96-well plate, then treated with DMSO, […] (DOX), […] and […] (shown as OGM in the figures). […] Cells labelled with CRT were counted automatically with Lionheart™ automated microscope and % of CRT+ cells calculated. […]
For the ATP secretion assay, U87 cells were seeded on 96-well plate, then treated with DMSO, […] (DOX), […] and […] (OGM). At 6 hours, extracellular ATP levels were measured using the ENLITEN ATP Assay (Promega™). […]

Row | SMILES | remaining binding at 10 µM (FLT3(D835Y)) [%] | remaining binding at 10 µM (GRK7) [%] | Antagonism (MRGX1; 10 uM) | Agonism (MRGX1; 12.5 uM) | remaining binding at 10 µM (SRPK2) [%] | Antagonism (ETA; 10 uM) | Agonism (ETA; 12.5 uM) | remaining binding at 10 µM (FGFR1) [%] | remaining binding at 10 µM (EGFR) [%] | remaining binding at 10 µM (PIK3C2G) [%] | Antagonism (FP; 10 uM) | Agonism (FP; 12.5 uM) | remaining binding at 10 µM (LRRK2(G2019S)) [%] | remaining binding at 10 µM (CSF1R) [%] | Class (HT-1080) | % Survival 2 μM OGM (HT-1080; 72 hours) [%] | % Survival 10 μM OGM (HT-1080; 72 hours) [%] | CC50 (HT-1080; Homo sapiens, HT-1080, 72 hours, read-out: LC50 (the source's name)) [µM] | externalization of CRT (U87; 3 hours of treatment) | secretion of ATP (U87; 6 hours)
1 | CCc1ccc2c(c1)C1(NN=C(c3cccc4ccccc34)S1)C(=O)N2 (centres unmarked) [OGM1, 5-ethyl-5′-naphthalen-1-ylspiro[1H-indole-3,2′-3H-1,3,4-thiadiazole]-2-one] | 100 | 73 | 2.3 | −0.1 | 100 | 4.7 | 0.1 | 100 | 100 | 50 | 8.9 | 0.9 | 100 | 78 | – | – | – | – | – | –
2 | CCc1ccc2c(c1)C1(NN=C(c3ccccc3)S1)C(=O)N2 (centres unmarked) [OGM2] | – | – | – | – | – | – | – | – | – | – | – | – | – | – | Sensitive (Sensitive (LC50=2 to 10 μM)) | 64.2 | 21.4 | 2 to 10 | significant externalization of CRT | secretion of ATP
